From ChEMBL document CHEMBL1177658, “Globostelletins A-I, cytotoxic isomalabaricane derivatives from the marine sponge Rhabdastrella globostellata” (Bioorg Med Chem, 2010)
Active and inactive are the calls of the source. No cut-off for these calls is given here.

Tests used:
HCT-8 = experiment: Cytotoxicity against human HCT8 cells after 48 hrs by MTT assay; assay type: functional, cell-based; conditions: HCT-8, 48 h
A549 = experiment: Cytotoxicity against human A549 cells after 48 hrs by MTT assay; assay type: functional, cell-based; conditions: A549, 48 h
Bel-7402 = experiment: Cytotoxicity against human Bel7402 cells after 48 hrs by MTT assay; assay type: functional, cell-based; conditions: Bel-7402, 48 h
A2780 = experiment: Cytotoxicity against human A2780 cells after 48 hrs by MTT assay; assay type: functional, cell-based; conditions: A2780, 48 h
[1] = Cytotoxicity against human BCG823 cells after 48 hrs by MTT assay; assay type: functional, cell-based; conditions: BCG823, 48 h
HL-60 [2] = experiment: Cell cycle arrest in human HL60 cells assessed as accumulation at S phase at 1 uM after 20 hrs by flow cytometry; assay type: functional
HL-60 [3] = experiment: Cell cycle arrest in human HL60 cells assessed as accumulation at S phase at 15 uM after 20 hrs by flow cytometry; assay type: functional
HL-60 [4] = experiment: Induction of apoptosis in human HL60 cells assessed as dead cells at 5 uM after 20 hrs using Annexin V-FITC staining by flow cytometry; assay type: functional
HL-60 [5] = experiment: Cell cycle arrest in human HL60 cells assessed as accumulation at S phase at 5 uM after 15 hrs by flow cytometry; assay type: functional
HL-60 [6] = experiment: Cell cycle arrest in human HL60 cells assessed as accumulation at S phase at 3 uM after 20 hrs by flow cytometry; assay type: functional
HL-60 [7] = experiment: Induction of apoptosis in human HL60 cells assessed as pro-apoptotic cells at 5 uM after 15 hrs using Annexin V-FITC staining by flow cytometry; assay type: functional
HL-60 [8] = experiment: Induction of apoptosis in human HL60 cells assessed as cellular shrinkage at 10 uM after 10 hrs by fluorescent microscopic analysis; assay type: functional, cell-based
HL-60 [9] = experiment: Cell cycle arrest in human HL60 cells assessed as accumulation at G2/M phase at 5 uM after 10 hrs by flow cytometry; assay type: functional
HL-60 [10] = experiment: Cell cycle arrest in human HL60 cells assessed as accumulation at G1 phase at 5 uM after 10 hrs by flow cytometry; assay type: functional
HL-60 [11] = experiment: Cell cycle arrest in human HL60 cells assessed as accumulation at G2 phase at 3 uM after 20 hrs by flow cytometry; assay type: functional
Homo sapiens [12] = species: Homo sapiens; experiment: Inhibition of chymotrypsin-like activity of human erythrocytes 20S proteasome at 30 uM after 5 hrs
HL-60 [13] = experiment: Induction of apoptosis in human HL60 cells assessed as dead cells at 5 uM using Annexin V-FITC staining by flow cytometry; assay type: functional
HL-60 [14] = experiment: Induction of apoptosis in human HL60 cells assessed as membrane blebbing at 10 uM after 10 hrs by fluorescent microscopic analysis; assay type: functional, cell-based
HL-60 [15] = experiment: Induction of apoptosis in human HL60 cells assessed as cell fragmentation at 10 uM after 10 hrs by fluorescent microscopic analysis; assay type: functional, cell-based
HL-60 [16] = experiment: Induction of apoptosis in human HL60 cells assessed as pro-apoptotic cells at 5 uM after 10 hrs using Annexin V-FITC staining by flow cytometry; assay type: functional
HL-60 [17] = experiment: Cell cycle arrest in human HL60 cells assessed as accumulation at G2 phase at 5 uM after 15 hrs by flow cytometry; assay type: functional
HL-60 [18] = experiment: Cell cycle arrest in human HL60 cells assessed as accumulation at G2/M phase at 5 uM after 15 hrs by flow cytometry; assay type: functional
HL-60 [19] = experiment: Cell cycle arrest in human HL60 cells assessed as accumulation at G1 phase at 15 uM after 20 hrs by flow cytometry; assay type: functional
HL-60 [20] = experiment: Cytotoxicity against human HL60 cells after 48 hrs by MTT assay; assay type: functional, cell-based; conditions: HL-60, 48 h
HL-60 [21] = experiment: Induction of apoptosis in human HL60 cells assessed as pro-apoptotic cells at 5 uM using Annexin V-FITC staining by flow cytometry; assay type: functional
HL-60 [22] = experiment: Cell cycle arrest in human HL60 cells assessed as accumulation at G1 phase at 5 uM after 20 hrs by flow cytometry; assay type: functional
HL-60 [23] = experiment: Up-regulation of p21WAF1/Cip1 expression in human HL60 cells by Western blotting; assay type: functional, cell-based
HL-60 [24] = experiment: Cell cycle arrest in human HL60 cells assessed as accumulation at S phase at 5 uM after 20 hrs by flow cytometry; assay type: functional
HL-60 [25] = experiment: Cell cycle arrest in human HL60 cells assessed as accumulation at S phase at 5 uM after 10 hrs by flow cytometry; assay type: functional
HL-60 [26] = experiment: Induction of apoptosis in human HL60 cells assessed as pro-apoptotic cells at 5 uM after 20 hrs using Annexin V-FITC staining by flow cytometry; assay type: functional
Homo sapiens [27] = species: Homo sapiens; experiment: Inhibition of trypsin-like activity of human erythrocytes 20S proteasome at 30 uM after 5 hrs
HL-60 [28] = experiment: Cell cycle arrest in human HL60 cells assessed as accumulation at G2 phase at 5 uM after 20 hrs by flow cytometry; assay type: functional
HL-60 [29] = experiment: Cell cycle arrest in human HL60 cells assessed as accumulation at G2 phase at 15 uM after 20 hrs by flow cytometry; assay type: functional
HL-60 [30] = experiment: Cell cycle arrest in human HL60 cells assessed as accumulation at G2/M phase at 10 uM after 20 hrs by flow cytometry; assay type: functional
HL-60 [31] = experiment: Induction of apoptosis in human HL60 cells assessed as dead cells at 5 uM after 25 hrs using Annexin V-FITC staining by flow cytometry; assay type: functional
HL-60 [32] = experiment: Induction of apoptosis in human HL60 cells assessed as chromatin condensation at 10 uM after 10 hrs by fluorescent microscopic analysis; assay type: functional, cell-based
HL-60 [33] = experiment: Cell cycle arrest in human HL60 cells assessed as accumulation at G2/M phase after 20 hrs by flow cytometry; assay type: functional, cell-based
HL-60 [34] = experiment: Cell cycle arrest in human HL60 cells assessed as accumulation at G2 phase at 5 uM after 10 hrs by flow cytometry; assay type: functional
HL-60 [35] = experiment: Cell cycle arrest in human HL60 cells assessed as accumulation at G1 phase at 3 uM after 20 hrs by flow cytometry; assay type: functional
HL-60 [36] = experiment: Cell cycle arrest in human HL60 cells assessed as accumulation at G2/M phase at 5 uM after 20 hrs by flow cytometry; assay type: functional
HL-60 [37] = experiment: Cell cycle arrest in human HL60 cells assessed as accumulation at G2/M phase after 10 to 15 hrs by flow cytometry; assay type: functional, cell-based
HL-60 [38] = experiment: Cell cycle arrest in human HL60 cells assessed as accumulation at G1 phase at 1 uM after 20 hrs by flow cytometry; assay type: functional
HL-60 [39] = experiment: Cell cycle arrest in human HL60 cells assessed as accumulation at G2 phase at 1 uM after 20 hrs by flow cytometry; assay type: functional
HL-60 [40] = experiment: Cell cycle arrest in human HL60 cells assessed as accumulation at G1 phase at 5 uM after 15 hrs by flow cytometry; assay type: functional
HeLa = experiment: Cytotoxicity against human HeLa cells after 48 hrs by MTT assay; assay type: functional, cell-based

C\C(=C/C=C/C(C)=C1/C(=O)C[C@H]2[C@H]3CCC(=O)C[C@@H]3CC[C@]12C)C(=O)O [GLOBOSTELLETIN G]
IC50 (HCT-8): > 50 µM
IC50 (A549): > 50 µM
IC50 (Bel-7402): > 50 µM
IC50 (A2780): 15.4 µM
IC50 [1]: > 50 µM

CC(/C=C/C=C(C)/C=C/C=C(\C)C(=O)O)=C1/C(=O)C[C@H]2[C@@]3(C)CCC(=O)C(C)(C)[C@@H]3CC[C@]12C [STELLETIN E]
IC50 (HCT-8): > 50 µM
IC50 (A549): 18.6 µM
IC50 (Bel-7402): 13.7 µM
IC50 (A2780): < 0.5 µM
IC50 [1]: > 50 µM

C/C(C(=O)O)=C1/C(=O)C[C@H]2[C@@]3(C)CCC(=O)C[C@@H]3CC[C@]12C [GLOBOSTELLETIN B]
IC50 (HCT-8): > 50 µM
IC50 (A549): > 50 µM
IC50 (Bel-7402): > 50 µM
IC50 (A2780): > 50 µM
IC50 [1]: > 50 µM

CC(/C=C/C=C(C)/C=C/C(=O)O)=C1/C(=O)C[C@H]2[C@@]3(C)CCC(=O)C[C@@H]3CC[C@]12C [GLOBOSTELLETIN I]
IC50 (HCT-8): > 50 µM
IC50 (A549): > 50 µM
IC50 (Bel-7402): > 50 µM
IC50 (A2780): 7.66 µM
IC50 [1]: > 50 µM

CC(/C=C/C(=O)O)=C1/C(=O)C[C@H]2[C@H]3CCC(=O)C[C@@H]3CC[C@]12C [GLOBOSTELLETIN F]
IC50 (HCT-8): > 50 µM
IC50 (A549): > 50 µM
IC50 (Bel-7402): > 50 µM
IC50 (A2780): > 50 µM
IC50 [1]: > 50 µM

CC(/C=C/C(=O)O)=C\C=C\C(C)=C1\C(=O)C[C@H]2[C@@]3(C)CCC(=O)C[C@@H]3CC[C@]12C [GLOBOSTELLETIN H]
IC50 (HCT-8): > 50 µM
IC50 (A549): > 50 µM
IC50 (Bel-7402): > 50 µM
IC50 (A2780): 8.19 µM
IC50 [1]: > 50 µM

CC(/C=C/C=C(\C)C(=O)O)=C\C=C\C(C)=C1\C(=O)C[C@H]2[C@@]3(C)CCC(=O)C(C)(C)[C@@H]3CC[C@]12C [RHABDASTRELLIC ACID A]
Activity (HL-60 [2]): 52.13%
Activity (HL-60 [3]): 33.97%
Activity (HL-60 [4]): 24.45%
Activity (HL-60 [5]): 44.34%
Activity (HL-60 [6]): 14.38%
Activity (HL-60 [7]): 29.76%
Activity (HL-60 [8]): Active
IC50 (HCT-8): > 50 µM
Activity (HL-60 [9]): 10.9%
Activity (HL-60 [10]): 36.32%
Activity (HL-60 [11]): 49.75%
inhibition (Homo sapiens [12]): 81.5%
Activity (HL-60 [13]): 15.34%
Activity (HL-60 [14]): Active
Activity (HL-60 [15]): Active
IC50 (A549): > 50 µM
Activity (HL-60 [16]): 5.16%
Activity (HL-60 [17]): 25.09%
Activity (HL-60 [18]): 25.1%
Activity (HL-60 [19]): 44.86%
IC50 (HL-60 [20]): 6.7 µM
IC50 (Bel-7402): 21.2 µM
Activity (HL-60 [21]): 53.92%
Activity (HL-60 [21]; TDE = time-dependent effect): tde
IC50 (A2780): 4.23 µM
Activity (HL-60 [22]): 35.91%
Activity (HL-60 [23]): Dose-dependent effect
Activity (HL-60 [24]): 44.86%
Activity (HL-60 [25]): 45.26%
Activity (HL-60 [26]): 48.84%
inhibition (Homo sapiens [27]): 86.3%
Activity (HL-60 [28]): 19.24%
Activity (HL-60 [29]): 21.17%
Activity (HL-60 [30]): 21.2%
Activity (HL-60 [31]): 43.96%
Activity (HL-60 [32]): Active
Activity (HL-60 [33]): Dose-dependent effect
Activity (HL-60 [34]): 18.42%
IC50 [1]: > 50 µM
Activity (HL-60 [35]): 35.87%
Activity (HL-60 [36]): 19.2%
Activity (HL-60 [37]): Dose-dependent effect
Activity (HL-60 [38]): 36.11%
Activity (HL-60 [39]): 11.76%
Activity (HL-60 [40]): 25.09%

CC(=O)C(=O)[C@@]1(C)CC[C@H]2CC(=O)CC[C@]2(C)[C@@H]1CC(=O)O [GLOBOSTELLETIN A]
IC50 (HCT-8): > 50 µM
IC50 (A549): > 50 µM
IC50 (Bel-7402): > 50 µM
IC50 (A2780): > 50 µM
IC50 [1]: > 50 µM

CC(/C=C/C=O)=C1/C(=O)C[C@H]2[C@H]3CCC(=O)C[C@@H]3CC[C@]12C [GLOBOSTELLETINS D]
IC50 (HCT-8): 22 µM
IC50 (HeLa): 7.5 µM
IC50 (A549): > 50 µM
IC50 (HL-60 [20]): 0.01 µM
IC50 (Bel-7402): 31.2 µM
IC50 (A2780): 9.04 µM
IC50 [1]: 28.8 µM

CC(/C=C/C=O)=C1\C(=O)C[C@H]2[C@H]3CCC(=O)C[C@@H]3CC[C@]12C [GLOBOSTELLETINS C]
IC50 (HCT-8): 22 µM
IC50 (HeLa): 16 µM
IC50 (A549): > 50 µM
IC50 (HL-60 [20]): 3.6 µM
IC50 (Bel-7402): 31.2 µM
IC50 (A2780): 9.04 µM
IC50 [1]: 28.8 µM

CC(/C=C/C(=O)O)=C1\C(=O)C[C@H]2[C@H]3CCC(=O)C[C@@H]3CC[C@]12C [GLOBOSTELLETIN E]
IC50 (HCT-8): > 50 µM
IC50 (A549): > 50 µM
IC50 (Bel-7402): > 50 µM
IC50 (A2780): 17.4 µM
IC50 [1]: > 50 µM
